Results on four compounds are retold here after ChEMBL document CHEMBL1158734, “Chemical conversion of nocathiacin I to nocathiacin II and a lactone analogue of glycothiohexide alpha” (2005).

Values after ≈ are worked out from the molar mass of the structure shown.

Format in all cases: functional
In assay [1] the test system is Staphylococcus aureus. Description: Protective activity against Staphylococcus aureus A15090 infected in sc dosed mouse. To be noted: read-out: PD50.
The test system of assay [2] is Streptococcus pneumoniae. Description: Antibacterial activity against Streptococcus pneumoniae A28272.
Assay [3] has as its system Staphylococcus aureus. Description: Antibacterial activity against Staphylococcus aureus A15090.
Assay [4] deals with Enterococcus faecalis. Description: Antibacterial activity against Enterococcus faecalis A20688.

In general, MIC refers to the least concentration at which growth counts as inhibited. A low value points to a more susceptible organism. On to `C=C(NC(=O)c1csc(-c2nc3c(cc2O)-c2nc(cs2)C(=O)N[C@@H]([C@@H](C)O)C(=O)N/C(=C(\C)OC)c2nc(cs2)C(=O)N[C@@H]2c4nc(cs4)C(=O)N[C@@H](COC(=O)c4[nH]c5cccc6c5c4CO[C@@H]2[C@H](O[C@H]2C[C@](C)(O)[C@H](N(C)C)[C@H](C)O2)C(=O)OC6)c2nc-3cs2)n1)C(N)=O` [NOCATHIACIN II], for which the ED50 in assay [1] is < 0.62 mg/kg. The results for the MIC in assay [2], in assay [3] and in assay [4] were 0.5 ng/mL (≈ 0.352 nM), 7 ng/mL (≈ 4.92 nM) and 150 ng/mL (≈ 106 nM), respectively.
Consider `CO/C(C)=C1/NC(=O)[C@H]([C@@H](C)O)NC(=O)c2csc(n2)-c2cc(O)c(-c3nc(C(N)=O)cs3)nc2-c2csc(n2)[C@@H]2COC(=O)c3c4c5c(cccc5n3O)COC(=O)[C@@H](O[C@H]3C[C@](C)(O)[C@H](N(C)C)[C@H](C)O3)[C@@H](OC4)[C@H](NC(=O)c3csc1n3)c1nc(cs1)C(=O)N2` [NOCATHIACIN IV], for which, in assay [1], the ED50 came out at 1.07 mg/kg. In addition, the minimal inhibitory concentration (MIC) in assay [2] came out at 1 ng/mL (≈ 0.731 nM); in assay [3] it was 3 ng/mL (≈ 2.19 nM); in assay [4], 7 ng/mL (≈ 5.12 nM).
Turning to `CO/C(C)=C1/NC(=O)[C@H]([C@@H](C)O)NC(=O)c2csc(n2)-c2cc(O)c(-c3nc(C(N)=O)cs3)nc2-c2csc(n2)[C@@H]2COC(=O)c3[nH]c4cccc5c4c3CO[C@H]([C@H](O[C@H]3C[C@](C)(O)[C@H](N(C)C)[C@H](C)O3)C(=O)OC5)[C@H](NC(=O)c3csc1n3)c1nc(cs1)C(=O)N2` [THIAZOMYCIN C], the ED50 in assay [1] was 4.35 mg/kg. For the same compound, the minimum inhibitory concentration (MIC) was 30 ng/mL (≈ 22.2 nM) in assay [2], 60 ng/mL (≈ 44.4 nM) in assay [3] and 125 ng/mL (≈ 92.4 nM) in assay [4].
`C=C(NC(=O)c1csc(-c2nc3c(cc2O)-c2nc(cs2)C(=O)N[C@@H]([C@@H](C)O)C(=O)N/C(=C(\C)OC)c2nc(cs2)C(=O)N[C@@H]2c4nc(cs4)C(=O)N[C@@H](COC(=O)c4c5c6c(cccc6n4O)COC(=O)[C@@H](O[C@H]4C[C@](C)(O)[C@H](N(C)C)[C@H](C)O4)[C@H]2OC5)c2nc-3cs2)n1)C(N)=O` [MJ347-81F4 A]: the ED50 in assay [1] was found to be 0.31 mg/kg. Moreover, the figures for the MIC in assay [2], in assay [3] and in assay [4] were 2 ng/mL (≈ 1.39 nM), 7 ng/mL (≈ 4.87 nM) and 30 ng/mL (≈ 20.9 nM), respectively.
